Assay [1] concerns MDA-MB-231 cells. Briefly: Annexin V-FITC/PI apoptosis flow cytometry, MDA-MB-231. The assay is classed as cell-based, human. As to the method:
(§1) MDA-MB-231 and MCF-7 cells (3 × 10^5 cells/well) were seeded into 6-well plates. After that, the cells were treated with 2L (0, 10 μM) for 24 h. Cells were harvested, washed repeatedly with cold phosphate-buffered saline (PBS), and resuspended in 195 μL of binding buffer. Then, 4 μL annexin V-FITC reagent (Beyotime) and 8 μL propidium iodide (PI, Beyotime) were added to the samples and gently mixed. After incubation for 15 min in the dark at room temperature, the stained cells were immediately detected by a FACScan flow cytometer (BD Biosciences, San Jose, CA, USA) and analyzed with the annexin V-FITC/PI apoptosis method.
A general note: In flow cytometry, cells or beads pass a laser one at a time.

Assay [2] deals with MDA-MB-231 cells. Briefly: Intracellular ROS, DCFH-DA, MDA-MB-231. The assay is classed as cell-based, human. Particulars: MDA-MB-231, 2L 24 h, vs control. As to the method: (§2) The Reactive Oxygen Species Assay Kit was used to measure intracellular ROS levels. MDA-MB-231 and MCF-7 cells (6 × 10^4 cells/well) were seeded onto 24-well plates and treated with 2L (0, 10 μM) for 24 h. Subsequently, the cells were washed with PBS and stained with dichlorodihydrofluorescein diacetate (DCFH-DA, 10 μM) at 37 °C for 20 min in the dark. Following three washes with serum-free DMEM, the fluorescence alteration was photographed using a fluorescence microscope.
(§3) MDA-MB-231 and MCF-7 cells were plated in 6-well plates with a density of 3 × 10^5 cells/well. After exposure to 2L for 24 h, the cells were incubated with 10 μM DCFH-DA at 37 °C for 20 min in the dark. Later, the cells were slightly washed three times with serum-free DMEM and centrifuged (1000 rpm, 5 min). The collected cells were resuspended in PBS and loaded into a flow cytometer.

Assay [3] concerns MDA-MB-231 cells. Briefly: MTT anti-proliferative assay, MDA-MB-231. Particulars: Homo sapiens, 48 h. In kind it is cell-based. As to the method:
(§4) The in vitro anti-proliferative activity of all synthesized analogues against MDA-MB-231 and MCF-7 cells was tested using the 3-(4,5-dimethylthiazol-2-yl)-[…] (MTT) method. […] Usually, Dox has been used as a positive control in many basic studies, especially drug screening assay. […] In the meantime, the cytotoxic activity of 2K–2N, PTE, and Dox against MCF-10A (human breast epithelial cell line) was examined. […] By contrast, the substitution of a saturated six-membered nitrogen heterocyclic ring on the side chain is extremely favorable for enhancing anti-BC efficacy (2L–2N vs. 1, PTE, 2A–2J). Based on the preceding analysis, analogue 2L was selected as the most promising anti-BC agent and used in the follow-up study.
The human breast cancer cell lines MDA-MB-231 and MCF-7 were purchased from the Chinese Academy of Science and cultured in Dulbecco’s modified Eagle’s medium (DMEM, Gibco, New York, NY, USA) containing 10% fetal bovine serum (FBS), 2 mM L-glutamine, 100 U/mL penicillin, and 100 μg/mL streptomycin. Then, the cells were maintained in a humidified incubator at 37 °C in the presence of 5% CO2.
The MTT assay was used to test the effect of PTEs on cell viability. The MDA-MB-231 (3 × 10^3 cells/well) and MCF-7 (4 × 10^3 cells/well) cells were seeded in a 96-well plate and cultured at 37 °C in a 5% CO2 incubator overnight. Afterwards, the medium was replaced with different concentrations of the title compounds (1, 3, 10, 30, and 100 μM). After incubation for 48 h, 10 μL of MTT solution (5 mg/mL) was added to each well and incubated for another 4 h. The optical density (OD) of the samples was measured using a microplate reader (Biotek, Burlington, VT, USA) at 570 nm. The inhibition rate (%) = [A570 (control) − A570 (compound)]/A570 (control) × 100%. The IC50 values were calculated using SPSS software version 17.0 (SPSS Inc., Chicago, IL, USA).
(In general: Tetrazolium dyes change colour on reduction, which living cells bring about.)

In assay [4] the test system is MCF-7 cells. Briefly: Annexin V-FITC/PI apoptosis flow cytometry, MCF-7. The assay is classed as cell-based, human. As to the method: as §1
For assay [5], the system named is apoptosis-related proteins in MCF-7 cells. Briefly: Western blot of apoptosis-related proteins, MCF-7. The assay is classed as cell-based, human. Particulars: MCF-7, 2L 1.1, 3.3, 10 μM, 24 h. As to the method:
MDA-MB-231 and MCF-7 cells were cultured in a 6-well plate with the density of 3 × 10^5 cells/well and treated with different concentrations of 2L (0, 1.1, 3.3, 10 μM) for 24 h. The cells were lysed in radioimmunoprecipitation assay (RIPA) buffer (Beyotime, Shanghai, China) containing 1% protease inhibitor cocktail and 1 mM phenylmethylsulfonyl fluoride (PMSF, Sigma-Aldrich, St. Louis, MO, USA). After centrifugation, the supernatant was collected and quantified by BCA assay (Beyotime). Lysates were mixed with the loading buffer (5 ×) and denatured by boiling for 10 min. Then, the equivalent samples were separated via 10–15% sodium dodecyl–sulfate polyacrylamide gel electrophoresis (SDS-PAGE), transferred to 0.45 µm immunoblot poly(vinylidene fluoride) (PVDF) membranes (Merck Millipore, Darmstadt, Germany) at 4 °C, and blocked in 5% skimmed milk in TBST for 1 h at room temperature. The membranes were incubated overnight at 4 °C with specific primary antibodies. After washing three times with TBST, the PVDF membranes were incubated with horseradish peroxidase (HRP)-conjugated secondary antibodies at rt for 1 h. Lastly, the resulting bands were visualized by a Bio-Rad ChemiDoc imaging system ([…]) using enhanced chemiluminescence reagents (Millipore, Billerica, MA, USA). The details of the corresponding primary antibodies were as follows: Bax (2772; Cell Signaling Technology), Bcl-2 (3498; Cell Signaling Technology), cleaved caspase-3 (9661; Cell Signaling Technology), cleaved caspase-9 (9505; Cell Signaling Technology), and PARP (9542; Cell Signaling Technology). The HRP-secondary antibodies were also obtained from Cell Signaling Technology (Boston, MA, USA).
(In general: In western blotting, separated proteins are transferred to a membrane and probed.)

Assay [6] relates to MCF-10A (human breast epithelial cell line). Briefly: Cytotoxic activity against MCF-10A. The assay is classed as cell-based. Particulars: cytotoxicity, normal breast epithelial cells. As to the method:
as §4

Assay [7] has as its system MCF-7 cells. Briefly: Intracellular ROS, DCFH-DA, MCF-7. The assay is classed as cell-based, human. Particulars: MCF-7, 2L 24 h, vs control. The procedure:
as §2, §3

Where “and” joins values, the source holds several entries; their conditions need not be identical. Identical values can stand only once.

Consider 1 molecule from PMC10380385, “Synthesis, In Vitro, and In Vivo Investigations of Pterostilbene-Tethered Analogues as Anti-Breast Cancer Candidates” (International Journal of Molecular Sciences, 2023).

The IC50 is the concentration at which inhibition is half-maximal. Lower therefore signals higher potency.

Take `COc1cc(/C=C/c2ccc(OCCCN3CCCCC3)cc2)cc(OC)c1` [Compound 2L, (E)-1-(3-(4-(3,5-dimethoxystyryl)phenoxy)propyl)piperidine]: the “apoptosis ratio with NAC” value is 8.8% in the assay with MDA-MB-231 cells [1] (MDA-MB-231, 2L 10 μM + 5 mM NAC) and 6.7% in the assay with MCF-7 cells [4] (MCF-7, 2L 10 μM + 5 mM NAC). In addition, the “apoptosis ratio with Z-VAD-FMK” value in the assay with MDA-MB-231 cells [1] (MDA-MB-231, 2L 10 μM + Z-VAD-FMK 20 μM) is 6.2%; in the assay with MCF-7 cells [4] (MCF-7, 2L 10 μM + Z-VAD-FMK 20 μM), 6.5%. Moreover, the “apoptotic percentage (early and late)” value with MDA-MB-231 cells [1] (MDA-MB-231, 2L 10 μM, 24 h) was 12.7% and 16.1% and 13.1%; with MCF-7 cells [4] (MCF-7, 2L 10 μM, 24 h), 14.0% and 14.5% and 12.2%. The “mean ROS-associated fluorescence intensity” value in the assay with MDA-MB-231 cells [2] and in the assay on MCF-7 cells [7] was “greatly increased” throughout. The results for the IC50 (in the assay on MDA-MB-231 cells [3]; in assay [6]) were 10.4 ± 0.4 µM and 68.9 ± 0.93 µM, respectively. For the same molecule, in assay [5], the “expression of Bcl-2” value is “markedly downregulated”. For the same molecule, in assay [5], the “level of Bax” value is on record as “upregulated”. Moreover, in assay [5], the “protein expression of cleaved caspase-3” value is on record as “increase”. In addition, in assay [5], the “protein expression of cleaved caspase-9” value was “increase”. In addition, the “protein level of cleaved PARP” value in assay [5] was “effectively elevate”.
